Test results from US20210137948A1, “TREATMENT OF INFECTIONS CAUSED BY NEISSERIA GONOCOCCUS USING A HALOGENATED SALICYLANILIDE” (priority 2018, published 2021).
Values after ≈ are worked out from the molar mass of the structure shown. Like-named read-outs stand apart in the source and are kept apart here.

Assays:
rabbits = conditions: p.o.; cited from earlier work
mice = conditions: p.o., cited from earlier work
rats = conditions: p.o., cited from earlier work
[1] = tested on: Neisseria gonorrhoeae CDC panel consisting of 48 isolates; assay: Agar dilution MIC, CDC panel of 48 isolates (Example 2); type: cell-based; conditions: for MIC: Neisseria gonorrhoeae
Experimental: Neisseria gonorrhoeae (Neisseria gonocossus) were tested for antimicrobial susceptibility using agar dilution as described by the Clinical and Laboratory Standards Institute (CLSI), see reference (4).
The concentrations tested for each compound encompass the reported interpretive breakpoints and consist of 8 or more doubling dilutions, ensuring that there is one dilution below the lowest value of QC.
GC agar base +1% defined growth supplement.
Initial screening strains: Neisseria gonorrhoeae CDC panel consisting of 48 isolates. The strains were provided by Clinical and Environmental Microbiology Branch, Division of Healthcare Quality Promotion, CDC (Atlanta, US).
Dilution scheme for reference method: Prepare intermediate 100× antimicrobial agent solutions by making successive serial twofold dilutions. Then, add one part of the 100× antimicrobial solution to […] of molten agar. Plates containing no antimicrobial agent solutions are made for use as growth controls. It is important that no longer than one hour elapses between the time that the stock solution is thawed, the dilutions are prepared and added to the base medium and the plates are poured, see reference (5).
• Add appropriate dilutions of antimicrobial solution to molten test agars that have been allowed to equilibrate in a water bath to 50° C. • Mix the agar and antimicrobial solution thoroughly and pour (20 mL) into Petri dishes on a level surface. Pour quickly after mixing to prevent cooling and partial solidification in the mixing container. Avoid generating bubbles when mixing. • Allow the agar to solidify at room temperature and store them in sealed plastic bags at 2 to 8° C. for up to five days. Preferably use with 24 hours. • Allow plates stored at 2 to 8° C. to equilibrate to room temperature before use. Make certain that the agar surface is dry before inoculating the plates. If necessary, place the plates in an incubator or laminar flow hood for approximately 30 minutes with their lids ajar to hasten drying of the agar surface.
Inoculum preparation: Prepare a standardized inoculum for the agar dilution method by suspending isolated colonies of Neisseria gonorrhoeae selected from an 18-24 hour-old chocolate agar plate directly in Mueller Hinton Broth (MHB) to achieve the density equivalent to a 0.5 McFarland standard and adjusted to obtain a cell density of ˜1-2×10^8 CFU/mL. For N. gonorrhoeae, the McFarland solutions are made at a reading of ˜0.80 in densitometer (Grant Instruments DEN-1B Densitometer) because these values have been evaluated and correspond to the desired CFU/mL count.
Dilution of inoculum suspension: Cultures adjusted to the 0.5 McFarland standard contain approximately 1 to 2×10^8 CFU/mL with most species, and the final inoculum required is 10^4 CFU per spot. When using replicators with 3-mm pins that deliver ˜2.5 μL, dilute the 0.5 McFarland suspension 1:10 in sterile MHB to obtain a concentration of 10^7 CFU/mL. The final inoculum on the agar will be approximately 10^4 CFU per spot. Use the adjusted suspensions for final inoculation within 60 minutes of preparation, see reference (5).
The following procedure was followed: • Arrange the tubes containing the adjusted and diluted bacterial suspensions (10^7 CFU/mL) in order in a rack. Place an aliquot of each well-mixed suspension into the corresponding well in the replicator inoculum block (if being used). • Mark the agar plates for orientation of the inoculum spots. • Apply an aliquot of each inoculum (2.5 μL) to the agar surface, either with an inocula-replicating device or pipette, to obtain a final concentration of ˜10^4 CFU/spot. • Inoculate a growth-control plate (no antimicrobial agent) first and then, starting with the lowest concentration, inoculate the plates containing the different antimicrobial concentrations. […]

O=C(Nc1ccc(Oc2ccc(Cl)cc2)c(Cl)c1)c1cc(I)cc(I)c1O [Rafoxanide, rafoxanide]
LD50 (rabbits): 3200 mg/kg | LD50, median (mice; median of the studies): 266 mg/kg | LD50 (mice): 232 to 300 mg/kg | LD50, median (rats; median of the studies): > 1490 mg/kg | LD50 (rats): 980->2000 mg/kg | MIC ([1]; read-out: MIC value, for 46 of the 48 isolates of N. gonorrhoeae): ≤ 50.2 µg/mL | MIC ([1]; read-out: Minimal inhibitory concentration, Neisseria gonorrhoeae strain CDC # 165): ≤ 0.25 µg/mL | MIC ([1]; read-out: Minimal inhibitory concentration, Neisseria gonorrhoeae strain CDC # 166): ≤ 0.25 µg/mL | MIC ([1]; read-out: Minimal inhibitory concentration, Neisseria gonorrhoeae strain CDC # 167): ≤ 0.25 µg/mL | MIC ([1]; read-out: Minimal inhibitory concentration, Neisseria gonorrhoeae strain CDC # 169): ≤ 0.25 µg/mL | MIC ([1]; read-out: Minimal inhibitory concentration, Neisseria gonorrhoeae strain CDC # 170): ≤ 0.25 µg/mL | MIC ([1]; read-out: Minimal inhibitory concentration, Neisseria gonorrhoeae strain CDC # 171): ≤ 0.25 µg/mL | MIC ([1]; read-out: Minimal inhibitory concentration, Neisseria gonorrhoeae strain CDC # 172): ≤ 0.25 µg/mL | MIC ([1]; read-out: Minimal inhibitory concentration, Neisseria gonorrhoeae strain CDC # 173): ≤ 0.25 µg/mL | MIC ([1]; read-out: Minimal inhibitory concentration, Neisseria gonorrhoeae strain CDC # 174): ≤ 0.25 µg/mL | MIC ([1]; read-out: Minimal inhibitory concentration, Neisseria gonorrhoeae strain CDC # 175): ≤ 0.25 µg/mL | MIC ([1]; read-out: Minimal inhibitory concentration, Neisseria gonorrhoeae strain CDC # 176): ≤ 0.25 µg/mL | MIC ([1]; read-out: Minimal inhibitory concentration, Neisseria gonorrhoeae strain CDC # 177): ≤ 0.25 µg/mL | MIC ([1]; read-out: Minimal inhibitory concentration, Neisseria gonorrhoeae strain CDC # 178): ≤ 0.25 µg/mL | MIC ([1]; read-out: Minimal inhibitory concentration, Neisseria gonorrhoeae strain CDC # 179): ≤ 0.25 µg/mL | MIC ([1]; read-out: Minimal inhibitory concentration, Neisseria gonorrhoeae strain CDC # 180): ≤ 0.25 µg/mL | MIC ([1]; read-out: Minimal inhibitory concentration, Neisseria gonorrhoeae strain CDC # 181): ≤ 0.25 µg/mL | MIC ([1]; read-out: Minimal inhibitory concentration, Neisseria gonorrhoeae strain CDC # 182): 2 µg/mL (≈ 3.19 µM) | MIC ([1]; read-out: Minimal inhibitory concentration, Neisseria gonorrhoeae strain CDC # 183): ≤ 0.25 µg/mL | MIC ([1]; read-out: Minimal inhibitory concentration, Neisseria gonorrhoeae strain CDC # 184): ≤ 0.25 µg/mL | MIC ([1]; read-out: Minimal inhibitory concentration, Neisseria gonorrhoeae strain CDC # 185): ≤ 0.25 µg/mL | MIC ([1]; read-out: Minimal inhibitory concentration, Neisseria gonorrhoeae strain CDC # 186): ≤ 0.25 µg/mL | MIC ([1]; read-out: Minimal inhibitory concentration, Neisseria gonorrhoeae strain CDC # 187): ≤ 0.25 µg/mL | MIC ([1]; read-out: Minimal inhibitory concentration, Neisseria gonorrhoeae strain CDC # 188): ≤ 0.25 µg/mL | MIC ([1]; read-out: Minimal inhibitory concentration, Neisseria gonorrhoeae strain CDC # 189): ≤ 0.25 µg/mL | MIC ([1]; read-out: Minimal inhibitory concentration, Neisseria gonorrhoeae strain CDC # 190): ≤ 0.25 µg/mL | MIC ([1]; read-out: Minimal inhibitory concentration, Neisseria gonorrhoeae strain CDC # 191): ≤ 0.25 µg/mL | MIC ([1]; read-out: Minimal inhibitory concentration, Neisseria gonorrhoeae strain CDC # 192): ≤ 0.25 µg/mL | MIC ([1]; read-out: Minimal inhibitory concentration, Neisseria gonorrhoeae strain CDC # 193): ≤ 0.25 µg/mL | MIC ([1]; read-out: Minimal inhibitory concentration, Neisseria gonorrhoeae strain CDC # 194): ≤ 0.25 µg/mL | MIC ([1]; read-out: Minimal inhibitory concentration, Neisseria gonorrhoeae strain CDC # 195): ≤ 0.25 µg/mL | MIC ([1]; read-out: Minimal inhibitory concentration, Neisseria gonorrhoeae strain CDC # 196): ≤ 0.25 µg/mL | MIC ([1]; read-out: Minimal inhibitory concentration, Neisseria gonorrhoeae strain CDC # 198): ≤ 0.25 µg/mL | MIC ([1]; read-out: Minimal inhibitory concentration, Neisseria gonorrhoeae strain CDC # 199): ≤ 0.25 µg/mL | MIC ([1]; read-out: Minimal inhibitory concentration, Neisseria gonorrhoeae strain CDC # 200): ≤ 0.25 µg/mL | MIC ([1]; read-out: Minimal inhibitory concentration, Neisseria gonorrhoeae strain CDC # 201): ≤ 0.25 µg/mL | MIC ([1]; read-out: Minimal inhibitory concentration, Neisseria gonorrhoeae strain CDC # 202): ≤ 0.25 µg/mL | MIC ([1]; read-out: Minimal inhibitory concentration, Neisseria gonorrhoeae strain CDC # 203): ≤ 0.25 µg/mL | MIC ([1]; read-out: Minimal inhibitory concentration, Neisseria gonorrhoeae strain CDC # 204): 0.5 µg/mL (≈ 0.799 µM) | MIC ([1]; read-out: Minimal inhibitory concentration, Neisseria gonorrhoeae strain CDC # 205): ≤ 0.25 µg/mL | MIC ([1]; read-out: Minimal inhibitory concentration, Neisseria gonorrhoeae strain CDC # 206): ≤ 0.25 µg/mL | MIC ([1]; read-out: Minimal inhibitory concentration, Neisseria gonorrhoeae strain CDC # 207): ≤ 0.25 µg/mL | MIC ([1]; read-out: Minimal inhibitory concentration, Neisseria gonorrhoeae strain CDC # 208): ≤ 0.25 µg/mL | MIC ([1]; read-out: Minimal inhibitory concentration, Neisseria gonorrhoeae strain CDC # 209): ≤ 0.25 µg/mL | MIC ([1]; read-out: Minimal inhibitory concentration, Neisseria gonorrhoeae strain CDC # 210): ≤ 0.25 µg/mL | MIC ([1]; read-out: Minimal inhibitory concentration, Neisseria gonorrhoeae strain CDC # 211): ≤ 0.25 µg/mL | MIC ([1]; read-out: Minimal inhibitory concentration, Neisseria gonorrhoeae strain CDC # 212): ≤ 0.25 µg/mL | MIC ([1]; read-out: Minimal inhibitory concentration, Neisseria gonorrhoeae strain CDC # 213): ≤ 0.25 µg/mL | MIC ([1]; read-out: Minimal inhibitory concentration, Neisseria gonorrhoeae strain CDC # 214): ≤ 0.25 µg/mL | in vitro activity (in words) ([1]; against N. gonococcus (N. gonorrhoeae), Example 2 conclusion): Good in vitro activity
